Assay results as given in PubChem BioAssay AID330 (DTP/NCI, 2004).
Several values for one entry are separate records, joined by “and”; a condition that tells them apart may be missing. Identical values can stand only once. Inconclusive results and toxic doses are left out. How the source made its calls: active means survival T/C of 150% or more; inactive means T/C below 125% in these data.

System: P388 leukemia ip, CD2F1 mice, survival T/C
Assay: NCI In Vivo Anticancer Drug Screen. Data for tumor model P388 Leukemia (intraperitoneal) in CD2F1 (CDF1) mice
Conditions: endpoint: median survival time, higher = longer survival
Method in brief: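 Mice carrying the transplanted tumor received test compound or vehicle. Survival was recorded in each group, and the value is the treated-group measurement divided by that of the vehicle-treated control group.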

[1] = dose: 100.0 mg/kg/injection, schedule: Q04DX003 (ip), vehicle: Klucel (hydroxypropylcellulose) (HPC)
[2] = dose: 200.0 mg/kg/injection, schedule: Q04DX003 (ip), vehicle: Klucel (hydroxypropylcellulose) (HPC)
[3] = dose: 400.0 mg/kg/injection, schedule: Q04DX003 (ip), vehicle: Klucel (hydroxypropylcellulose) (HPC)
[4] = dose: 60.0 mg/kg/injection, schedule: Q01DX005 (ip), vehicle: saline
[5] = dose: 60.0 mg/kg/injection, schedule: Q01DX005 (ip), vehicle: saline with Tween-80
[6] = dose: 120.0 mg/kg/injection, schedule: Q01DX005 (ip), vehicle: saline with Tween-80
[7] = dose: 240.0 mg/kg/injection, schedule: Q01DX005 (ip), vehicle: saline with Tween-80
[8] = dose: 12.5 mg/kg/injection, schedule: Q01DX005 (ip), vehicle: saline with Tween-80
[9] = dose: 50.0 mg/kg/injection, schedule: Q01DX005 (ip), vehicle: saline
[10] = dose: 100.0 mg/kg/injection, schedule: Q01DX005 (ip), vehicle: saline
[11] = dose: 50.0 mg/kg/injection, schedule: Q01DX005 (ip), vehicle: saline with Tween-80

Measured: T/C

Cc1nc(N)[nH]c(=O)c1-c1ccc(Cl)cc1
inactive: [1] 106 % of control | [2] 105 % of control | [3] 99 % of control

CCOC(=O)c1cn(C)c2c1C(=O)C(C(=O)OCC)CC(=O)N2 (stereo not drawn)
inactive: dose: 50.0 mg/kg/injection, schedule: Q01DX005 (ip), vehicle: saline + Tween-80 + alcohol 94 % of control | dose: 100.0 mg/kg/injection, schedule: Q01DX005 (ip), vehicle: saline + Tween-80 + alcohol 99 % of control | dose: 200.0 mg/kg/injection, schedule: Q01DX005 (ip), vehicle: saline + Tween-80 + alcohol 101 % of control

CNC1=CC(=S)NC(C)(C)C1
inactive: dose: 50.0 mg/kg/injection, schedule: Q01DX009 (ip), vehicle: saline 100 % of control | dose: 100.0 mg/kg/injection, schedule: Q01DX009 (ip), vehicle: saline 92 % of control | dose: 200.0 mg/kg/injection, schedule: Q01DX009 (ip), vehicle: saline 92 % of control

CN(C)c1nc(-c2ccccc2)cc(=O)[nH]1
inactive: dose: 15.0 mg/kg/injection, schedule: Q01DX009 (ip), vehicle: saline with Tween-80 102 % of control | dose: 30.0 mg/kg/injection, schedule: Q01DX009 (ip), vehicle: saline with Tween-80 108 % of control | dose: 50.0 mg/kg/injection, schedule: Q04DX003 (ip), vehicle: Klucel (hydroxypropylcellulose) (HPC) 98 % of control | dose: 60.0 mg/kg/injection, schedule: Q01DX009 (ip), vehicle: saline with Tween-80 100 % of control | [1] 94 % of control | [2] 94 % of control | [3] 92 % of control

CS/C(=C\c1ccc2ccccc2[n+]1C)N1CCN(CCCO)CC1
inactive: dose: 15.0 mg/kg/injection, schedule: Q01DX005 (ip), vehicle: saline 104 % of control | dose: 30.0 mg/kg/injection, schedule: Q01DX005 (ip), vehicle: saline 95 % of control | [4] 95 % of control

CCCCCCCCCNCC(O)c1cc2c(c3ccccc13)CCCC2 (stereo not drawn)
inactive: dose: 6.25 mg/kg/injection, schedule: Q01DX005 (ip), vehicle: Klucel (hydroxypropylcellulose) (HPC) 92 % of control | dose: 12.5 mg/kg/injection, schedule: Q01DX005 (ip), vehicle: Klucel (hydroxypropylcellulose) (HPC) 90 % of control | dose: 25.0 mg/kg/injection, schedule: Q01DX005 (ip), vehicle: Klucel (hydroxypropylcellulose) (HPC) 99 % of control

COc1cc(C2c3cc4c(cc3OC(C)(O)C2C(C)=O)OCO4)cc(OC)c1O (stereo not drawn)
inactive: [5] 95 % of control | [6] 97 % of control | [7] 90 % of control

C=CC(C)(C)C12Oc3c(ccc(OC)c3OC)C1=COc1cc(O)ccc12 (stereo not drawn)
inactive: dose: 100.0 mg/kg/injection, schedule: Q01DX001 (ip), vehicle: Klucel (hydroxypropylcellulose) (HPC) 101 % of control | dose: 200.0 mg/kg/injection, schedule: Q01DX001 (ip), vehicle: Klucel (hydroxypropylcellulose) (HPC) 105 % of control | dose: 400.0 mg/kg/injection, schedule: Q01DX001 (ip), vehicle: Klucel (hydroxypropylcellulose) (HPC) 97 % of control

CN(C)CC/C=C1/c2ccccc2Sc2ccc(Cl)cc21
inactive: dose: 6.25 mg/kg/injection, schedule: Q01DX005 (ip), vehicle: saline with Tween-80 104 % of control | [8] 111 % of control

CC(=O)/C=C1/NC(C(=O)c2ccccc2)=CNC1c1ccccc1 (stereo not drawn)
inactive: [5] 102 % of control | [6] 91 % of control | [7] 95 % of control

CCN(CC)CCCC(C)Nc1nc(-c2ccc(OC)cc2)nc2cc(Cl)ccc12 (stereo not drawn)
inactive: [9] 102 % of control | [10] 93 % of control

O[C@]12CC=CC[C@]1(O)CC(N1CCCCC1)C2
inactive: dose: 12.5 mg/kg/injection, schedule: Q01DX009 (ip), vehicle: saline with Tween-80 100 % of control | dose: 25.0 mg/kg/injection, schedule: Q01DX009 (ip), vehicle: saline with Tween-80 120 % of control and 93 % of control | dose: 50.0 mg/kg/injection, schedule: Q01DX009 (ip), vehicle: saline with Tween-80 100 % of control and 111 % of control | dose: 100.0 mg/kg/injection, schedule: Q01DX009 (ip), vehicle: saline with Tween-80 93 % of control

CSc1nc(NN)c2cnn(C3CCCCO3)c2n1 (stereo not drawn)
inactive: dose: 100.0 mg/kg/injection, schedule: Q04DX002 (ip), vehicle: saline with Tween-80 100 % of control | dose: 200.0 mg/kg/injection, schedule: Q04DX002 (ip), vehicle: saline with Tween-80 96 % of control | dose: 400.0 mg/kg/injection, schedule: Q04DX002 (ip), vehicle: saline with Tween-80 94 % of control

COc1cc(/C=C/C=C/c2ccccc2)oc(=O)c1
inactive: [1] 91 % of control | [2] 90 % of control | [3] 92 % of control

C=C1C(=O)OC2/C=C(\C)C3OC3/C=C(/C(=O)OC)C(O)C(OC(=O)C3(C)OC3C)C12 (stereo not drawn)
inactive: dose: 3.0 mg/kg/injection, schedule: Q01DX009 (ip), vehicle: Klucel (hydroxypropylcellulose) (HPC) 115 % of control and 123 % of control | dose: 6.0 mg/kg/injection, schedule: Q01DX009 (ip), vehicle: Klucel (hydroxypropylcellulose) (HPC) 120 % of control and 123 % of control | dose: 12.0 mg/kg/injection, schedule: Q01DX009 (ip), vehicle: Klucel (hydroxypropylcellulose) (HPC) 119 % of control | dose: 24.0 mg/kg/injection, schedule: Q01DX009 (ip), vehicle: Klucel (hydroxypropylcellulose) (HPC) 94 % of control

COc1cccc(C[n+]2ccccc2C#N)c1OC
inactive: dose: 3.12 mg/kg/injection, schedule: Q04DX002 (ip), vehicle: saline 101 % of control | dose: 6.25 mg/kg/injection, schedule: Q04DX002 (ip), vehicle: saline 102 % of control | dose: 12.5 mg/kg/injection, schedule: Q04DX002 (ip), vehicle: saline 103 % of control and 92 % of control

Cc1cn(CCCn2cnc3c(=O)[nH]cnc32)c(=O)[nH]c1=O
inactive: [5] 92 % of control | [6] 101 % of control | [7] 88 % of control

COC(=O)C1=NC(=S)N=C(C(=O)OC)C1(C)C(=O)c1ccccc1
inactive: [4] 95 % of control | dose: 120.0 mg/kg/injection, schedule: Q01DX005 (ip), vehicle: saline 95 % of control | dose: 240.0 mg/kg/injection, schedule: Q01DX005 (ip), vehicle: saline 118 % of control

Cc1c([N+](=O)[O-])c(=O)oc2ccc3c(=O)ccoc3c12
inactive: [11] 98 % of control | dose: 100.0 mg/kg/injection, schedule: Q01DX005 (ip), vehicle: saline with Tween-80 96 % of control | dose: 200.0 mg/kg/injection, schedule: Q01DX005 (ip), vehicle: saline with Tween-80 99 % of control

C/C=C/C=C1\C=Cc2c(C(=O)OC)coc(=O)c21
inactive: dose: 19.5 mg/kg/injection, schedule: Q01DX005 (ip), vehicle: Klucel (hydroxypropylcellulose) (HPC) 107 % of control | dose: 39.0 mg/kg/injection, schedule: Q01DX005 (ip), vehicle: Klucel (hydroxypropylcellulose) (HPC) 110 % of control | dose: 78.0 mg/kg/injection, schedule: Q01DX005 (ip), vehicle: Klucel (hydroxypropylcellulose) (HPC) 108 % of control

CC(C)(C)OC(=O)C(N(Cc1ccccc1)Cc1ccccc1)N(Cc1ccccc1)Cc1ccccc1
inactive: [5] 88 % of control | [6] 88 % of control | [7] 86 % of control

COc1ccc(-c2nc(SCC(=O)O)n(-c3ccccn3)c2-c2ccc(OC)cc2)cc1
inactive: dose: 100.0 mg/kg/injection, schedule: Q01DX001 (ip), vehicle: water 100 % of control | dose: 200.0 mg/kg/injection, schedule: Q01DX001 (ip), vehicle: water 91 % of control

C[C@@H]1C[C@@]2(C)[C@@H](CC[C@@H]3[C@@H]2CC[C@@]2(C)[C@H]3CC[C@]2(C)O)CC1=O
inactive: dose: 25.0 mg/kg/injection, schedule: Q01DX009 (ip), vehicle: saline sonified 95 % of control | dose: 25.0 mg/kg/injection, schedule: Q04DX003 (ip), vehicle: saline with Tween-80 100 % of control | dose: 50.0 mg/kg/injection, schedule: Q01DX009 (ip), vehicle: saline sonified 86 % of control | dose: 50.0 mg/kg/injection, schedule: Q04DX003 (ip), vehicle: saline with Tween-80 100 % of control | dose: 100.0 mg/kg/injection, schedule: Q01DX009 (ip), vehicle: saline sonified 95 % of control | dose: 100.0 mg/kg/injection, schedule: Q04DX003 (ip), vehicle: saline with Tween-80 100 % of control

CCC(C)N(CC)CCNc1cc(OC)cc2cccnc12 (stereo not drawn)
inactive: [9] 103 % of control | [10] 99 % of control

O=C(O)C1CCC(=O)N1Cc1c[nH]c2ccccc12 (stereo not drawn)
inactive: [5] 98 % of control | [6] 94 % of control | [7] 97 % of control

Cc1ccc(NC2=C([n+]3ccc(C)cc3)C(=O)c3ccccc3C2=O)cc1
inactive: [8] 100 % of control | dose: 25.0 mg/kg/injection, schedule: Q01DX005 (ip), vehicle: saline with Tween-80 109 % of control | [11] 124 % of control
